How the values were obtained:
Assay in all cases: relative viability (nuclei count vs DMSO), 5 days (fraction); higher = more cells survive
Masitinib + Olaparib = compound: Cc1ccc(NC(=O)c2ccc(CN3CCN(C)CC3)cc2)cc1Nc1nc(-c2cccnc2)cs1 [Masitinib] + O=C(c1cc(Cc2n[nH]c(=O)c3ccccc23)ccc1F)N1CCN(C(=O)C2CC2)CC1 [Olaparib] (partner 8 µM)
In short: (§1)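 Values are medians from duplicate plates. Each reflects relative viability, defined as the nuclei count of treated wells over that of vehicle wells. Lung cancer cell lines in 1536-well plates were pin-tool dosed one day after seeding with one drug alone or with a fixed anchor-drug dose plus five library-drug doses (not always all listed) in √10 steps, then fixed, stained and imaged at 4× after 5 days.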

Masitinib + OSI-027 = compound: Cc1ccc(NC(=O)c2ccc(CN3CCN(C)CC3)cc2)cc1Nc1nc(-c2cccnc2)cs1 [Masitinib] + COc1cccc2cc(-c3nc([C@H]4CC[C@H](C(=O)O)CC4)n4ncnc(N)c34)[nH]c12 [OSI-027] (partner 0.5 µM)
In short: as §1

Masitinib + Decitabine = compound: Cc1ccc(NC(=O)c2ccc(CN3CCN(C)CC3)cc2)cc1Nc1nc(-c2cccnc2)cs1 [Masitinib] + Nc1ncn([C@H]2C[C@H](O)[C@@H](CO)O2)c(=O)n1 [Decitabine] (partner 2 µM)
In short: as §1

[1] = compound: CC1=CC(=CC=C1)NC2=NC(=CS2)C3=CC=NC=C3 + Nc1nc2[nH]cc(CCc3ccc(C(=O)N[C@@H](CCC(=O)O)C(=O)O)cc3)c2c(=O)[nH]1 [Pemetrexed] (partner 0.2 µM)
In short: as §1

Cell Line	relative viability (Masitinib + Olaparib; first compound 0.01 µM)	relative viability (Masitinib + Olaparib; first compound 0.03162 µM)	relative viability (Masitinib + Olaparib; first compound 0.1 µM)	relative viability (Masitinib + Olaparib; first compound 0.3162 µM)	relative viability (Masitinib + Olaparib; first compound 1 µM)	relative viability (Masitinib + OSI-027; first compound 0.01 µM)	relative viability (Masitinib + OSI-027; first compound 0.03162 µM)	relative viability (Masitinib + OSI-027; first compound 0.1 µM)	relative viability (Masitinib + OSI-027; first compound 0.3162 µM)	relative viability (Masitinib + OSI-027; first compound 1 µM)	relative viability (Masitinib + Decitabine; first compound 0.01 µM)	relative viability (Masitinib + Decitabine; first compound 0.03162 µM)	relative viability (Masitinib + Decitabine; first compound 0.1 µM)	relative viability (Masitinib + Decitabine; first compound 0.3162 µM)	relative viability (Masitinib + Decitabine; first compound 1 µM)	relative viability ([1]; first compound 0.08 µM)	relative viability ([1]; first compound 0.253 µM)	relative viability ([1]; first compound 0.8 µM)	relative viability ([1]; first compound 2.53 µM)	relative viability ([1]; first compound 8 µM)
HCC-44	0.939	0.968	0.979	0.916	0.963	0.526	0.497	0.531	0.392	0.59	0.665	0.898	0.675	0.868	1.09	0.537	0.55	0.586	0.663	0.607
HCC-827	0.564	0.642	0.655	0.624	0.695	0.728	0.704	0.832	0.84	0.692	0.296	0.342	0.295	0.27	0.312	0.283	0.274	0.282	0.256	0.272
NCI-H1623	–	–	–	–	–	0.373	0.507	0.447	0.318	0.367	–	–	–	–	–	–	–	–	–	–
NCI-H2405	0.78	0.816	0.873	0.722	0.827	0.62	0.63	0.633	0.609	0.659	0.688	0.692	0.762	0.764	0.692	0.921	0.985	0.999	–	0.903
PC-3 [JPC-3]	0.985	1.11	1.22	0.932	1.11	0.381	0.643	0.783	0.64	0.694	0.828	0.771	0.824	0.819	0.785	0.909	–	1.15	0.961	1.05
NCI-H1666	0.736	0.716	0.724	0.695	0.73	–	0.861	0.921	0.792	0.833	0.698	0.665	0.703	0.626	0.647	0.787	0.749	0.603	0.738	0.674
HARA	0.749	0.507	1.15	–	1.13	–	0.44	0.521	0.384	0.315	0.474	0.4	0.634	–	0.508	0.267	0.22	0.203	0.255	0.276
NCI-H1651	0.155	0.216	0.177	0.181	0.169	0.735	0.656	0.695	0.824	0.706	0.551	0.674	0.595	0.598	0.584	0.55	0.604	0.648	0.498	0.598
NCI-H1395	0.473	0.465	0.471	0.422	0.432	0.647	0.609	0.71	0.563	0.623	0.734	0.705	0.694	0.703	0.62	0.757	–	0.921	0.596	0.728
LU99A	0.27	0.276	0.246	0.255	0.269	0.257	0.331	0.311	0.316	0.29	0.921	0.916	0.901	0.997	0.986	0.141	0.199	0.171	0.178	0.182
LXF-289	0.948	0.99	1.06	1.04	1.02	0.747	0.963	0.794	0.861	0.767	0.332	0.394	0.435	0.369	0.41	0.851	0.924	0.708	0.871	0.792
NCI-H1437	0.623	0.603	0.668	0.616	0.61	0.768	0.936	0.899	0.879	0.858	0.559	0.565	0.582	0.524	0.527	0.349	0.326	0.27	0.31	0.283
HCC-78	0.798	0.855	0.871	0.712	0.824	0.36	0.337	0.364	0.337	0.335	0.634	0.637	0.605	0.693	0.615	0.907	0.963	0.827	0.917	0.9
NCI-H1650	0.675	0.711	0.751	0.614	0.884	0.58	0.478	0.719	0.499	0.543	0.438	0.391	0.411	0.493	0.345	0.341	0.358	0.399	0.346	0.323
HCC-15	0.628	0.669	0.753	0.735	0.82	0.635	0.68	0.641	0.588	0.629	0.58	0.546	0.659	0.582	0.638	0.222	0.214	0.203	0.194	0.214
EKVX	0.653	0.704	0.766	–	0.744	–	0.533	0.566	0.673	0.599	0.342	0.31	0.35	–	0.541	0.361	0.333	–	0.32	0.328
NCI-H2126	0.916	0.965	1	0.992	0.991	0.697	0.727	0.653	0.602	0.657	0.58	0.499	0.586	0.505	0.567	0.596	0.599	0.657	0.599	0.719
LK-2	0.8	0.679	1.01	0.615	0.7	0.194	0.214	0.198	0.201	0.243	0.342	0.261	0.366	0.249	0.281	–	0.315	0.263	0.135	0.347
NCI-H1563	–	–	–	–	–	0.741	0.717	0.781	0.738	0.705	–	–	–	–	–	0.744	0.739	0.717	0.742	0.881
COR-L23	0.35	0.329	0.361	0.309	0.27	0.893	0.737	0.776	0.751	0.738	0.388	0.412	0.463	0.329	0.359	0.184	0.194	0.201	0.189	0.184

Cell Line	relative viability (Masitinib + Olaparib; first compound 0.01 µM)	relative viability (Masitinib + Olaparib; first compound 0.03162 µM)	relative viability (Masitinib + Olaparib; first compound 0.1 µM)	relative viability (Masitinib + Olaparib; first compound 0.3162 µM)	relative viability (Masitinib + Olaparib; first compound 1 µM)	relative viability (Masitinib + OSI-027; first compound 0.01 µM)	relative viability (Masitinib + OSI-027; first compound 0.03162 µM)	relative viability (Masitinib + OSI-027; first compound 0.1 µM)	relative viability (Masitinib + OSI-027; first compound 0.3162 µM)	relative viability (Masitinib + OSI-027; first compound 1 µM)	relative viability (Masitinib + Decitabine; first compound 0.01 µM)	relative viability (Masitinib + Decitabine; first compound 0.03162 µM)	relative viability (Masitinib + Decitabine; first compound 0.1 µM)	relative viability (Masitinib + Decitabine; first compound 0.3162 µM)	relative viability (Masitinib + Decitabine; first compound 1 µM)	relative viability ([1]; first compound 0.08 µM)	relative viability ([1]; first compound 0.253 µM)	relative viability ([1]; first compound 0.8 µM)	relative viability ([1]; first compound 2.53 µM)	relative viability ([1]; first compound 8 µM)
ABC-1	0.727	1.39	0.844	0.67	0.78	0.432	0.52	0.516	0.334	0.38	1.02	1.14	1.24	1.06	0.865	–	–	–	–	–
SW 900	0.809	0.878	0.918	0.684	0.966	0.654	0.443	0.627	0.527	0.482	0.349	0.438	0.452	0.519	0.442	0.507	0.4	0.473	0.42	0.366
PC-14	0.277	0.256	0.249	0.232	0.204	0.887	0.794	0.822	0.875	0.826	0.217	0.202	0.192	0.16	0.25	0.144	0.131	0.141	0.134	0.136
NCI-H1648	1.04	0.78	1.08	–	0.96	0.272	–	0.236	0.268	0.254	0.614	0.451	0.568	–	0.453	0.639	0.626	0.749	0.673	0.633
A549	0.363	0.184	0.338	0.301	0.325	–	–	–	–	–	0.249	0.251	0.219	0.433	0.278	–	–	–	–	–
A-427	0.621	0.711	0.654	0.489	0.663	–	0.509	–	0.531	0.456	0.491	0.539	0.567	0.515	0.541	0.915	1.02	0.987	0.899	0.932
NCI-H1915	–	0.289	–	0.254	0.238	–	0.606	–	0.578	0.546	–	0.239	–	0.241	0.246	0.496	0.493	0.508	0.508	0.401
LCLC-97TM1	0.402	0.396	0.406	0.473	0.427	–	0.534	0.559	0.568	0.516	0.273	0.233	0.281	0.167	0.225	0.168	0.161	0.19	0.168	0.182
NCI-H1734	0.557	0.564	0.623	0.618	0.6	0.668	0.625	0.599	0.568	0.544	0.539	0.485	0.546	0.522	0.483	0.374	0.421	0.409	0.44	0.371
LCLC-103H	–	0.747	0.75	0.758	0.781	0.412	0.526	0.414	0.459	0.404	–	0.723	0.735	0.748	0.711	0.415	0.434	0.45	0.46	0.488
RERF-LC-KJ	0.935	0.916	0.978	0.672	0.852	0.629	0.517	0.583	0.418	0.412	0.631	0.71	0.743	0.762	0.618	0.518	0.488	0.506	0.361	0.474
NCI-H1703	0.308	0.267	0.231	0.174	0.277	–	–	–	–	–	–	–	–	–	–	–	–	–	–	–
Calu-6	0.53	0.656	0.63	0.563	0.547	–	–	–	–	–	–	–	–	–	–	–	–	–	–	–
EBC-1	0.679	0.673	0.814	0.713	0.615	–	–	–	–	–	–	–	–	–	–	–	–	–	–	–
IA-LM	0.896	0.875	0.929	0.796	0.836	–	–	–	–	–	–	–	–	–	–	–	–	–	–	–
NCI-H727	0.76	0.774	0.686	0.819	0.676	0.523	0.601	0.637	0.576	0.442	0.808	1.03	0.763	0.729	0.781	–	–	–	–	–
NCI-H1299	0.936	0.988	0.993	1.06	0.846	–	–	–	–	–	–	–	–	–	–	–	–	–	–	–
NCI-H2228	0.756	0.589	0.622	0.548	0.661	0.633	0.661	0.638	0.807	0.528	–	–	–	–	–	0.38	0.346	0.323	0.343	0.208
CAL-12T	0.716	0.696	0.688	0.712	0.708	0.682	0.554	0.705	0.404	0.536	–	–	–	–	–	1.19	0.94	1.15	1.05	1.07
